Laboratory results: ChEMBL document CHEMBL4257005, “Therapeutically active compounds and their methods of use” (2016)

Key:
[1] = biological target: Isocitrate dehydrogenase [NADP] cytoplasmic (Homo sapiens, UniProt O75874, R132C); assay: Inhibition of DH1 R132C mutant homodimer (unknown origin) expressed in Sf9 cells pre-incubated for 1 hr before addition of alpha-KG followed by 90 mins incubation in presence of NADPH, NADP, diaphorase and resazurin by fluorescence spectrometry
[2] = biological target: Isocitrate dehydrogenase [NADP] cytoplasmic (Homo sapiens, UniProt O75874, R132H); assay: Inhibition of DH1 R132H mutant homodimer (unknown origin) expressed in Sf9 cells pre-incubated for 1 hr before addition of alpha-KG followed by 90 mins incubation in presence of NADPH, NADP, diaphorase and resazurin by fluorescence spectrometry
[3] = biological target: Isocitrate dehydrogenase [NADP] cytoplasmic (Homo sapiens, UniProt O75874); assay: Inhibition of His-tagged wild type IDH1 (unknown origin)/FLAG-tagged IDH1 R132H mutant heterodimer expressed in Sf9 cells pre-incubated for 1 hr before addition of alpha-KG followed by diaphorase and resazurin addition and measured after 5 mins in presence of NADPH and 30 uM NADP ny fluorescence spectrometry
Isocitrate dehydrogenase [NADP] cytoplasmic (Homo sapiens, UniProt O75874), sequence (O75874 2-414 limits assumed): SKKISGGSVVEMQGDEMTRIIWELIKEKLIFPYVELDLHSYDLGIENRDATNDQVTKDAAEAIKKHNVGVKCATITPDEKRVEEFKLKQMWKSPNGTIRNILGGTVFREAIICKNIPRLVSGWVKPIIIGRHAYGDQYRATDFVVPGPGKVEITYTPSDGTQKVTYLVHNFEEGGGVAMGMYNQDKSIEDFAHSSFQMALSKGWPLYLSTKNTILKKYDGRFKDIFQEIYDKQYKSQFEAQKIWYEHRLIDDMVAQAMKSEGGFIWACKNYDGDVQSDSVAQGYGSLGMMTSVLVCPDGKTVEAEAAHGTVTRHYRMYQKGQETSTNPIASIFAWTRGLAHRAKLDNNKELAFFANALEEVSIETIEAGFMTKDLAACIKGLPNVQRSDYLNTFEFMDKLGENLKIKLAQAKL

Isocitrate dehydrogenase [NADP] cytoplasmic (Homo sapiens, UniProt O75874, R132C), sequence (O75874 2-414 R132C limits assumed): as the sequence (O75874 2-414 limits assumed) above, with R131C counted along it
Isocitrate dehydrogenase [NADP] cytoplasmic (Homo sapiens, UniProt O75874, R132H), sequence (O75874 2-414 R132H limits assumed): as the sequence (O75874 2-414 limits assumed) above, with R131H counted along it

Row | IC50 [1] | SMILES | other results
1 | Not Active | C[C@@H](Nc1nc(N[C@H](C)C2CC2)nc(-c2cccc(C(F)(F)F)n2)n1)C(=O)O | 
2 | Not Active | C[C@@H](Nc1nc(N[C@H](C)C2CC2)nc(-c2cccc(C(F)(F)F)n2)n1)C(=O)N(C)C | 
3 |  | COc1ccc(F)c(-c2nc(N[C@H](C)C3CC3)nc(N[C@H](C)C3CC3)n2)c1 | IC50 [2]: Not Active
4 |  | C[C@@H](Nc1nc(N[C@H](C)C2CC2)nc(-c2ccc(Cl)cc2)n1)C1CC1 | IC50 [3]: Not Active
5 | Not Active | C[C@@H](Nc1nc(NCC(N)=O)nc(-c2cccc(C(F)(F)F)n2)n1)C1CC1 | 
